In US20260001928A1 (CORTERIA PHARMACEUTICALS, priority 2022, published 2026):
*1 amine or outer side, *2 acyl side, *3 side chain or, on linkers, in order; H or OH if unused. Where a SMILES comes first, the peptide text is derived from it. Side-chain parts run from the residue outwards. [ ]: non-standard residue; d: D form. The star is where a group is joined. C20 diacid = O=C(O)CCCCCCCCCCCCCCCCCCC(=O)*; C16 diacid = O=C(O)CCCCCCCCCCCCCCC(=O)*; γGlu = O=C(O)[C@H](CCC(=O)[*:2])N[*:1]; NMeI = CC[C@H](C)[C@H](NC)C(=O)O; AEEA = NCCOCCOCC(=O)O; Aib = CC(C)(N)C(=O)O

test system: human LAD2 cells; assay type: cell-based
Procedure: LAD2 cells (20000 cells/well, 96-well plates and 10,000 cells/well in 384-well plates) were incubated with compounds for 30 min. The R-hexosaminidase released into the supernatants and in cell lysates was quantified using the fluorogenic substrate 4-methylumbelliferyl-N-acetyl-b-D-glucosaminide.
On the day of the assay, the lyophilized peptides were dissolved in DMSO and/or PBS 1× pH 7.4, to obtain stock solutions. The stock solutions were used to prepare working serial dilutions to have final concentrations in assay ranging from 50, 100 or 300 to 0.1 or 0.001 μM. Each peptide was tested in biological duplicates. When compounds were dissolved in DMSO, the final solvent concentration in assay was 0.5% (v/v).
The percentage of degranulation, expressed as % of R-hexosaminidase release, was calculated by dividing the fluorescence signal of the supernatant by the sum of the signals from the supernatant and cell pellet (lysed with Triton X-100, final 1%) and multiplying by 100.
Dose-response curves were generated by plotting the % of R-hexosaminidase release versus total release of cells treated with triton (y-axis) against the concentrations of peptides tested (x-axis). The Mast Cell Degranulation (MCD) EC50 values and standard errors were calculated using XLfit 5.5.0.5 based on the following equation:
4 Parameter Sigmoidal Model: f=(A+((B−A)/(1+((C/x)^D))))
where A=Emin, B=Emax, C=EC50 and D=slope

Q: For `CC[C@H](C)[C@H](NC(C)=O)C(=O)N[C@H](C(=O)N[C@@H](CC(C)C)C(=O)N[C@@H](CO)C(=O)N[C@@H](CC(C)C)C(=O)N[C@@H](CC(=O)O)C(=O)N[C@@H](C(=O)N1CCC[C@H]1C(=O)N[C@H](C(=O)N[C@@H](CCCCN)C(=O)N[C@@H](CC(C)C)C(=O)N[C@@H](CCCCNC(=O)CC[C@H](NC(=O)CCCCCCCCCCCCCCCCCCC(=O)O)C(=O)O)C(=O)N[C@@H](CCCCN)C(=O)N[C@H](C(=O)N[C@@H](CC(C)C)C(=O)N[C@@H](CC(C)C)C(=O)N[C@@H](CCC(=O)O)C(=O)N[C@@H](CCC(N)=O)C(=O)N[C@@H](CCC(=O)O)C(=O)N[C@@H](CCCCN)C(=O)N[C@@H](CCC(N)=O)C(=O)N[C@@H](CCCCN)C(=O)N[C@@H](CCC(=O)O)C(=O)N[C@@H](CCC(N)=O)C(=O)N[C@@H](CCCNC(=N)N)C(=O)N[C@@H](CCC(=O)O)C(=O)N[C@@H](CCC(N)=O)C(=O)N[C@@H](C)C(=O)N[C@@H](CCC(=O)O)C(=O)N[C@H](C(=O)N[C@@H](CC(N)=O)C(=O)NC(C)(C)C(=O)N[C@@H](CCC(N)=O)C(=O)N[C@H](C(=O)N[C@@H](CC(C)C)C(=O)N[C@@H](C)C(=O)N[C@@H](CCC(N)=O)C(=O)N[C@H](C(N)=O)C(C)C)[C@@H](C)CC)[C@@H](C)O)[C@@H](C)CC)[C@@H](C)CC)C(C)C)C(C)C` [Cmpd 213] (Ac-IVLSLD[dV]PIKLK([γGlu-C20 diacid])KILLEQEKQKEQREQAETN[Aib]QILAQV-NH2), which EC50 is on record?
A: > 300 µM

Q: `CC[C@H](C)[C@H](NC)C(=O)N[C@H](C(=O)N[C@@H](CC(C)C)C(=O)N[C@@H](CO)C(=O)N[C@@H](CC(C)C)C(=O)N[C@@H](CC(=O)O)C(=O)N[C@@H](C(=O)N1CCC[C@H]1C(=O)N[C@H](C(=O)N[C@@H](CCCCN)C(=O)N[C@@H](CC(C)C)C(=O)N[C@@H](CCCCNC(=O)CC[C@H](NC(=O)CCCCCCCCCCCCCCCCCCC(=O)O)C(=O)O)C(=O)N[C@@H](CCCCN)C(=O)N[C@H](C(=O)N[C@@H](CC(C)C)C(=O)N[C@@H](CC(C)C)C(=O)N[C@@H](CCC(=O)O)C(=O)N[C@@H](CCC(N)=O)C(=O)N[C@@H](CCC(=O)O)C(=O)N[C@@H](CCCCN)C(=O)N[C@@H](CCC(N)=O)C(=O)N[C@@H](CCCCN)C(=O)NC(C)(C)C(=O)N[C@@H](CCC(N)=O)C(=O)N[C@@H](CCCNC(=N)N)C(=O)N[C@@H](CCC(=O)O)C(=O)N[C@@H](CCC(N)=O)C(=O)N[C@@H](C)C(=O)N[C@@H](CCC(=O)O)C(=O)N[C@H](C(=O)N[C@@H](CC(N)=O)C(=O)NC(C)(C)C(=O)N[C@@H](CCC(N)=O)C(=O)N[C@H](C(=O)N[C@@H](CC(C)C)C(=O)N[C@@H](C)C(=O)N[C@@H](CCC(N)=O)C(=O)N[C@H](C(N)=O)C(C)C)[C@@H](C)CC)[C@@H](C)O)[C@@H](C)CC)[C@@H](C)CC)C(C)C)C(C)C` [Cmpd 215] (H-[NMeI]VLSLD[dV]PIKLK([γGlu-C20 diacid])KILLEQEKQK[Aib]QREQAETN[Aib]QILAQV-NH2) was tested. Which EC50 did it give?
A: > 100 µM

Q: Which EC50 does the source give for `CC[C@H](C)[C@H](NC(C)=O)C(=O)N[C@H](C(=O)N[C@@H](CC(C)C)C(=O)N[C@@H](CO)C(=O)N[C@@H](CC(C)C)C(=O)N[C@@H](CC(=O)O)C(=O)N[C@@H](C(=O)N1CCC[C@H]1C(=O)N[C@H](C(=O)N[C@@H](CCCCN)C(=O)N[C@@H](CC(C)C)C(=O)N[C@@H](CCCCNC(=O)COCCOCCNC(=O)COCCOCCNC(=O)CC[C@H](NC(=O)CCCCCCCCCCCCCCCCCCC(=O)O)C(=O)O)C(=O)N[C@@H](CCCCN)C(=O)N[C@H](C(=O)N[C@@H](CC(C)C)C(=O)N[C@@H](CC(C)C)C(=O)N[C@@H](CCC(=O)O)C(=O)N[C@@H](CCC(N)=O)C(=O)N[C@@H](CCC(=O)O)C(=O)N[C@@H](CCCCN)C(=O)N[C@@H](CCC(N)=O)C(=O)N[C@@H](CCCCN)C(=O)N[C@@H](CCCCN)C(=O)N[C@@H](CCC(N)=O)C(=O)N[C@@H](CCCNC(=N)N)C(=O)N[C@@H](CCC(=O)O)C(=O)N[C@@H](CCC(N)=O)C(=O)N[C@@H](C)C(=O)N[C@@H](CCC(=O)O)C(=O)N[C@H](C(=O)N[C@@H](CC(N)=O)C(=O)NC(C)(C)C(=O)N[C@@H](CCC(N)=O)C(=O)N[C@H](C(=O)N[C@@H](CC(C)C)C(=O)N[C@@H](C)C(=O)N[C@@H](CCC(N)=O)C(=O)N[C@H](C(N)=O)C(C)C)[C@@H](C)CC)[C@@H](C)O)[C@@H](C)CC)[C@@H](C)CC)C(C)C)C(C)C` [Cmpd 238] (Ac-IVLSLD[dV]PIKLK([AEEA-AEEA-γGlu-C20 diacid])KILLEQEKQKKQREQAETN[Aib]QILAQV-NH2) here?
A: 36.7 µM

Q: `CC[C@H](C)[C@H](NC(C)=O)C(=O)N[C@H](C(=O)N[C@@H](CC(C)C)C(=O)N[C@@H](CO)C(=O)N[C@@H](CC(C)C)C(=O)N[C@@H](CC(=O)O)C(=O)N[C@@H](C(=O)N1CCC[C@H]1C(=O)N[C@H](C(=O)N[C@@H](CCCCN)C(=O)N[C@@H](CC(C)C)C(=O)N[C@@H](CCCCNC(=O)CC[C@H](NC(=O)CCCCCCCCCCCCCCC(=O)O)C(=O)O)C(=O)N[C@@H](CCCCN)C(=O)N[C@H](C(=O)N[C@@H](CC(C)C)C(=O)N[C@@H](CC(C)C)C(=O)N[C@@H](CCC(=O)O)C(=O)N[C@@H](CCC(N)=O)C(=O)N[C@@H](CCC(=O)O)C(=O)N[C@@H](CCCCN)C(=O)N[C@@H](CCC(N)=O)C(=O)N[C@@H](CCCCN)C(=O)N[C@@H](C)C(=O)N[C@@H](CCC(N)=O)C(=O)N[C@@H](CCCNC(=N)N)C(=O)N[C@@H](CCC(=O)O)C(=O)N[C@@H](CCC(N)=O)C(=O)N[C@@H](C)C(=O)N[C@@H](CCC(=O)O)C(=O)N[C@H](C(=O)N[C@@H](CC(N)=O)C(=O)NC(C)(C)C(=O)N[C@@H](CCC(N)=O)C(=O)N[C@H](C(=O)N[C@@H](CC(C)C)C(=O)N[C@@H](C)C(=O)N[C@@H](CCC(N)=O)C(=O)N[C@H](C(N)=O)C(C)C)[C@@H](C)CC)[C@@H](C)O)[C@@H](C)CC)[C@@H](C)CC)C(C)C)C(C)C` [Cmpd 161] (Ac-IVLSLD[dV]PIKLK([γGlu-C16 diacid])KILLEQEKQKAQREQAETN[Aib]QILAQV-NH2) was tested. Which EC50 did it give?
A: > 50 µM

Q: With `CC[C@H](C)[C@H](NC)C(=O)N[C@H](C(=O)N[C@@H](CC(C)C)C(=O)N[C@@H](CO)C(=O)N[C@@H](CC(C)C)C(=O)N[C@@H](CC(=O)O)C(=O)N[C@@H](C(=O)N1CCC[C@H]1C(=O)N[C@H](C(=O)N[C@@H](CCCCN)C(=O)N[C@@H](CC(C)C)C(=O)N[C@@H](CCCCNC(=O)COCCOCCNC(=O)COCCOCCNC(=O)CC[C@H](NC(=O)CCCCCCCCCCCCCCCCCCC(=O)O)C(=O)O)C(=O)N[C@@H](CCCCN)C(=O)N[C@H](C(=O)N[C@@H](CC(C)C)C(=O)N[C@@H](CC(C)C)C(=O)N[C@@H](CCC(=O)O)C(=O)N[C@@H](CCC(N)=O)C(=O)N[C@@H](CCC(=O)O)C(=O)N[C@@H](CCCCN)C(=O)N[C@@H](CCC(N)=O)C(=O)N[C@@H](CCCCN)C(=O)N[C@@H](CCC(=O)O)C(=O)N[C@@H](CCC(N)=O)C(=O)N[C@@H](CCCNC(=N)N)C(=O)N[C@@H](CCC(=O)O)C(=O)N[C@@H](CCC(N)=O)C(=O)N[C@@H](C)C(=O)N[C@@H](CCC(=O)O)C(=O)N[C@H](C(=O)N[C@@H](CC(N)=O)C(=O)NC(C)(C)C(=O)N[C@@H](CCC(N)=O)C(=O)N[C@H](C(=O)N[C@@H](CC(C)C)C(=O)N[C@@H](C)C(=O)N[C@@H](CCC(N)=O)C(=O)N[C@H](C(N)=O)C(C)C)[C@@H](C)CC)[C@@H](C)O)[C@@H](C)CC)[C@@H](C)CC)C(C)C)C(C)C` [Cmpd 237] (H-[NMeI]VLSLD[dV]PIKLK([AEEA-AEEA-γGlu-C20 diacid])KILLEQEKQKEQREQAETN[Aib]QILAQV-NH2) as the compound, how does the EC50 read?
A: > 300 µM

Q: With `CC[C@H](C)[C@H](NC)C(=O)N[C@H](C(=O)N[C@@H](CC(C)C)C(=O)N[C@@H](CO)C(=O)N[C@@H](CC(C)C)C(=O)N[C@@H](CC(=O)O)C(=O)N[C@@H](C(=O)N1CCC[C@H]1C(=O)N[C@H](C(=O)N[C@@H](CCCCN)C(=O)N[C@@H](CC(C)C)C(=O)N[C@@H](CCCCNC(=O)COCCOCCNC(=O)CC[C@H](NC(=O)CCCCCCCCCCCCCCCCCCC(=O)O)C(=O)O)C(=O)N[C@@H](CCCCN)C(=O)N[C@H](C(=O)N[C@@H](CC(C)C)C(=O)N[C@@H](CC(C)C)C(=O)N[C@@H](CCC(=O)O)C(=O)N[C@@H](CCC(N)=O)C(=O)N[C@@H](CCC(=O)O)C(=O)N[C@@H](CCCCN)C(=O)N[C@@H](CCC(N)=O)C(=O)N[C@@H](CCCCN)C(=O)N[C@@H](CCC(=O)O)C(=O)N[C@@H](CCC(N)=O)C(=O)N[C@@H](CCCNC(=N)N)C(=O)N[C@@H](CCC(=O)O)C(=O)N[C@@H](CCC(N)=O)C(=O)N[C@@H](C)C(=O)N[C@@H](CCC(=O)O)C(=O)N[C@H](C(=O)N[C@@H](CC(N)=O)C(=O)NC(C)(C)C(=O)N[C@@H](CCC(N)=O)C(=O)N[C@H](C(=O)N[C@@H](CC(C)C)C(=O)N[C@@H](C)C(=O)N[C@@H](CCC(N)=O)C(=O)N[C@H](C(N)=O)C(C)C)[C@@H](C)CC)[C@@H](C)O)[C@@H](C)CC)[C@@H](C)CC)C(C)C)C(C)C` [Cmpd 233] (H-[NMeI]VLSLD[dV]PIKLK([AEEA-γGlu-C20 diacid])KILLEQEKQKEQREQAETN[Aib]QILAQV-NH2) as the compound, how does the EC50 read?
A: > 300 µM
